Entries after “also recorded” stand apart in the source; their conditions may differ.
Experiments:
Format in all cases: in vivo, rat
[1] = tested on: castrate Sprague-Dawley male rats; assay: Androgenic activity, Hershberger test (ventral prostate weight)
Protocol: The androgenic activity was tested as follows (see, Hershberger et al., Proc. Soc. Exptl. Biol. Med., 83: 175-180 (1953)). Immature (approximately 21 day old) male rats of the Sprague-Dawley strain were orchidectomized under METOFANE® anesthesia and randomly assigned to groups of ten animals for each dose level of test material and vehicle controls. Animals were maintained under standard conditions of housing and had free access to food and water. Illumination was controlled for 14-hour periods of light and 10 hours of darkness. Test compounds were dissolved in 10% ethanol/sesame oil and administered by gavage (oral) or subcutaneous injection daily for seven consecutive days starting on the day of surgery. Animals were sacrificed 24 hours after the last dose and the ventral prostate and seminal vesicles excised, cleaned of fat and connective tissue, blotted on moist filter paper and weighed to the nearest 0.1 mg. Ventral prostate weight was used as the endpoint because ventral prostate is the more sensitive organ to androgenic stimulation.
Statistical analysis was performed by conventional methods using a PROPHET data management system operating on SUN Microsystems OS 4.1.1 (see e.g., Bliss, Cl (1952) The Statistics of Bioassay, New York, Academic Press; Hollister, C (1988), Nucleic Acids Research, 16:1873-1875.
Each data point represents the mean (n=10) and standard error of the mean (SEM) prostate weight for each dose level. The potency ratio and 95% confidence index are set forth below.

[2] = tested on: luteinizing hormone (rLH); assay: Serum rLH in castrate male rats
Protocol: FIG. 14 depicts the serum levels of rLH as a function of time for groups 2 and 4 of the animals. Serum rLH were measured in the blood from castrate male rats following fourteen daily 12 mg/kg oral doses of CDB-4719A (dimethandrolone 17β-decylcarbonate, filled circles, group 2) or CDB-4521C (dimethandrolone 17β-undecanoate, open triangles, group 4) in 10% ethanol/sesame oil on days 0-13. Samples from weeks −1 to 6 or from weeks 7 to 9 and repeats were assayed as described in the protocols MEL-480AD using [^125I]-rLH or MEL-480AE, AG using [^125I]-rLH. The limit of detection shown as dotted line, or EC90, was the mean of 0.13, 0.14, or 0.16 in the first assay and 0.17, 0.22, or 0.21 ng/ml in the second series of assays based on 200 μl of serum per tube.
FIG. 15 depicts the serum levels of rLH as a function of time for groups 1 and 3 of the animals. Serum rLH were measured in the blood from castrate male rats following a single 12 mg/kg subcutaneous injection of CDB-4719A (dimethandrolone 17β-decylcarbonate, filled circles, group 1) or CDB-4521C (dimethandrolone 17β-undecanoate, open triangles, group 3) in an aqueous suspending vehicle on day 0. Samples from weeks −1 to 6 or from weeks 7 to 22 and repeats were assayed as described in the protocols MEL-480AD using [^125I]-rLH or MEL-480AE, AG, AH using [^125I]-rLH. The limit of detection shown as dotted line, or EC90, was the mean of 0.13, 0.14, or 0.16 in the first assay and 0.17, 0.22, or 0.21 ng/ml in the second series of assays based on 200 μl of serum per tube.
Carbonates of the invention, in embodiments, can be used to suppress luteinizing hormone in a mammal for extended periods of time. […] CDB-4719A (dimethandrolone 17β-decylcarbonate) was administered to castrate male rats, daily at 12 mg/kg oral doses, and CDB-4521C (dimethandrolone 17β-undecanoate) was administered in 10% ethanol/sesame oil, on days 0-13. […] This observation could have advantageous clinical implications, for example, in obtaining sustained suppression of the luteinizing hormone or hormone replacement therapy. In addition, this could have an advantage by providing a facile treatment using oral compositions such as tablets or capsules of the carbonates of the invention in suppressing hormone levels. Such treatment can be advantageous relative to a treatment involving parenteral (e.g., subcutaneous) administration of a drug such as the ester drug. Patient compliance is better with oral formulations than injections.
FIG. 15 provides a comparison between CDB-4719A (dimethandrolone 17β-decylcarbonate) and CDB-4521C (dimethandrolone 17β-undecanoate). A single dose (12 mg/kg) of the compound was administered to castrate male rats by subcutaneous injection in an aqueous suspending vehicle on day 0. The serum rLH concentration was monitored over a 22-week period and beyond.

[3] = tested on: castrate Sprague-Dawley male rats; assay: Duration of androgenic activity after a single subcutaneous injection (ventral prostate weight, AUC); settings: for AUC of ventral prostate weight (duration of androgenic activity): 14 weeks
Protocol: Duration of androgenic activity was determined as follows. Immature (22 days of age) male rats of the Sprague-Dawley CD strain were orchidectomized under METOFANE anesthesia and randomly assigned to groups of forty or more animals. Animals were maintained under standard conditions of housing and had free access to food and water. Illumination was controlled for 14-hour periods of light and 10 hours of darkness. Animals received a single subcutaneous injection of 0.6 mg of test material in aqueous suspending vehicle (ASV) and/or an oily vehicle (10% ethanol/sesame oil, sesame oil containing 5 mg/ml chlorobutanol as a preservative or ethyl oleate) on the day of surgery. Controls received vehicle alone. Testosterone enanthate in sesame oil was used as a standard. In cases where the test material was not solid at room temperature, i.e., a wax or oil, 10% ethanol/sesame oil or ethyl oleate was used as a vehicle. Five rats from each group were sacrificed at weekly or biweekly intervals and seminal vesicle and ventral prostate glands were excised, cleaned of adherent fat and connective tissue and weighed to the nearest 0.1 mg. Ventral prostate weight was used as the endpoint because it is the more sensitive organ to androgenic stimulation. Area under the curve (AUC) was calculated by the trapezoidal rule.
Each data point represents the mean (n=5) and standard error of the mean (SEM) prostate weight for each time period. […] In FIG. 8, the data for 1.2 mg dose groups are shown together with historical data for testosterone undecanoate in aqueous suspension and testosterone enanthate in sesame oil as standards. Both testosterone undecanoate and testosterone enanthate are commercially available.

[4] = Serum levels of dimethandrolone (CDB-1321) and immunoreactive metabolites by radioimmunoassay; parameters: AUC of serum concentration of dimethandrolone and immunoreactive metabolites: unit not given here; settings: n=5, FIG. 9
Protocol: Serum levels of testosterone and CDB-1321 were determined as follows. Rats from a duration of androgenic activity study were exsanguinated at autopsy, serum prepared by allowing blood to clot at room temperature and the sample frozen for subsequent radioimmunoassay. A radioimmunoassay for the free alcohol, 7a, 11β-dimethyl-19-nortestosterone, was developed using antisera generated in rabbits against the 3-carboxymethyloxime-BSA conjugate and employing the corresponding histamine conjugate for iodination as tracer.

[5] = fourteen daily 12 mg/kg oral doses in 10% ethanol/sesame oil, days 0-13, FIG. 14
[6] = 1.2 mg, 14-week observation period
[7] = single subcutaneous injection of 0.6 mg in aqueous suspending vehicle
[8] = single subcutaneous injection of 1.2 mg in aqueous suspending vehicle

CCCCCCCCCCOC(=O)O[C@H]1CC[C@H]2[C@H]3[C@H]([C@@H](C)C[C@]12C)[C@H]1CCC(=O)C=C1C[C@H]3C [CDB-4719, 17β-Decyloxycarbonyloxy-7α,11β-dimethylestr-4-en-3-one]
Androgenic activity Potency Ratio ([1]; oral, daily for 7 days in 10% ethanol/sesame oil, CDB 110 (methyltestosterone) = 1.000 assigned, FIG. 5, ranges did not pass all significance tests): five to nine times | Androgenic activity Potency Ratio ([1]; oral, daily for 7 days in 10% ethanol/sesame oil, CDB 110 (methyltestosterone) = 1.000 assigned, FIG. 5, ranges did not pass all significance tests, listed as 4719): 5.486-8.992^1,2 | Androgenic activity Potency Ratio, 4718 vs. 4719 ([1]; oral, direct comparison of CDB-4718 and CDB-4719): 3.016 | Androgenic activity Potency Ratio ([1]; subcutaneous injection, daily for 7 days, CBD-111 (testosterone) = 1.000 assigned, FIG. 6, footnote 2 values did not pass all significance tests): no more potent than testosterone standard | Androgenic activity Potency Ratio ([1]; subcutaneous injection, daily for 7 days, CBD-111 (testosterone) = 1.000 assigned, FIG. 6, footnote 2 values did not pass all significance tests, listed as 4719): 0.64 | Serum rLH after administration was discontinued [2, 5]: remained suppressed for several weeks | Serum rLH during administration [2, 5]: remained suppressed | Serum rLH up to 16 weeks post administration ([2]; single 12 mg/kg subcutaneous injection in aqueous suspending vehicle on day 0, FIG. 15): remains suppressed | Serum rLH after 16 weeks ([2]; single 12 mg/kg subcutaneous injection in aqueous suspending vehicle on day 0, monitored over 22 weeks, FIG. 15): remained suppressed even at week 22 | AUC relative to testosterone enanthate in sesame oil [3, 6]: more than three times greater | AUC relative to testosterone undecanoate [3, 6]: more than five times greater | Duration of androgenic activity (in words) ([3]; single subcutaneous injection in aqueous vehicle): far more potent than testosterone; also recorded: most dramatic increase and maintenance of ventral prostate weight | AUC of ventral prostate weight (duration of androgenic activity) [3, 7]: 1417 mg·week | AUC of ventral prostate weight (duration of androgenic activity) [3, 8]: 2764 mg·week | AUC of serum concentration of dimethandrolone and immunoreactive metabolites [4, 7]: 4151 | AUC of serum concentration of dimethandrolone and immunoreactive metabolites [4, 8]: 6010

— patent US7820642B2, “Nandrolone 17β-carbonates” (The United States of America as represented by the …, priority 2005, dated 2010)
